For the test, the system named is PDC 899932-113-R3-J6 complex spheroid viability. Briefly: Anticancer human tumor 899932-113-R3-J6-PDC patient-derived melanoma cell line growth inhibition [RAS]. The note with it: for viability, T/C: stronger effect = lower value. From the text: RAS pathway inhibitors in Combinations in Complex Spheroids
A high-throughput screen of multi-cell type tumor spheroids was designed to identify active combinations of RAS pathway inhibitors and targeted small molecules. Complex spheroids include a stromal component modeled by human endothelial cells (HUVEC) and fibroblasts modeled by human mesenchymal stem cells (MSCs). The concentration ranges selected for each drug and investigational agent were based upon clinically achievable concentrations if the clinical Cmax of the agent was known.
Compounds. The drugs and investigational agents: abemaciclib (NSC768073), cobimetinib (NSC768068), divarasib (GDC6063, NSC841802), docetaxel (NSC628503), GDC-1971 (RLY-1971, NSC841576), gemcitabine (NSC613327), inavolisib (NSC800729), ipatasertib (NSC767898), KB-0742 (NSC834161), MRTX-1133 (NSC836407), osimertinib (NSC779217), RMC-4630 (NSC839698), RMC-6236 (NSC851965), RMC-6291 (NSC852671), Ro-3306 (NSC812927), sapanisertib (NSC764658), SN-38 (NSC673596), staurosporine (NSC755774), SY5609 (NSC837396), and tovorafenib (DAY101, NSC766906), were obtained from the National Cancer Institute (NCI) Developmental Therapeutics Program Chemical Repository. The FDA-approved anticancer drug set is available from the NCI Developmental Therapeutics Program. […] The stock solutions were prepared in dimethyl sulfoxide (DMSO, Sigma-Aldrich, St. Louis, MO, cat. D2650) at 800-fold the tested concentration and stored at -70 degrees C prior to their use. All drugs and investigational agents were tested over a range starting from a high concentration at or near the clinical Cmax and decreasing in half-log increments. If the clinical Cmax for an agent had not been determined, the highest concentration tested was 10 microM.
Cell Culture. All cells were maintained in an incubator at 37 degrees C and 5% CO2 with 95% humidity. The PDC lines were cultured according to standard operating procedures established by the NCI PDMR. All PDCs were thawed and cultured in Matrigel-coated flasks prepared with a working solution of 1X Ham's F-12 nutrient mix, without supplementation (Invitrogen, Waltham, MA, cat. 11765054), 100 U/mL penicillin-streptomycin (Invitrogen, cat. 15140122), and 2.5% Matrigel (Corning Inc., Corning, NY, cat. 354248) for the first three passages. The 362531-283-R-J2-PDC and 782815-120-R-J1-PDC lines were cultured in 6C/Colon 1B media, which includes advanced DMEM/F-12 (Thermo Fisher Scientific, cat. 12634028), 10 mM HEPES (Thermo Fisher Scientific, cat. 15630080), 1X GlutaMAX supplement (Thermo Fisher Scientific, cat. 35050061), 0.1 mg/mL primocin (InvivoGen, San Diego, CA, cat. ant-pm-2), 10% defined fetal bovine serum, heat inactivated (HyClone Laboratories Inc., Logan, UT, cat. SH30070.03HI), 50% L-WRN conditioned media (ATCC, cat. CRL-3276), 1.25 mM N-Acetyl-L-cysteine (Sigma-Aldrich, cat. A9165), 10 mM nicotinamide (Sigma-Aldrich, cat. N0636), 1X B-27 supplement (Thermo Fisher Scientific, cat. 17504044), 1X N-2 supplement (Thermo Fisher Scientific, cat. 17502048), 50 ng/mL human EGF (Thermo Fisher Scientific, cat. PHG0311), and 10 microM Y-27632 dihydrochloride (Tocris Bioscience, cat. 1254). The K12877-001-R-J1-PDC line was cultured in 6I media, which includes all 6C/Colon 1B media plus 10 ng/mL human FGF-10 (PeproTech, cat. 100-26), 1 ng/mL human FGF-2 (PeproTech, cat. 100-18B), 1 µM prostaglandin E2 (Tocris Bioscience, cat. 2296), […] hydrocortisone (Sigma-Aldrich, cat. H4001), and […] bovine insulin (Sigma-Aldrich, cat. I6634). The K86415-001-R-J1-PDC line was cultured in 6D media, which includes all 6C/Colon 1B media components minus the L-WRN conditioned media. The 485176-168-R4-J1-PDC was cultured in PANC media, which includes all 6C/Colon 1B media plus 100 ng/mL human FGF-10 (PeproTech, cat. 100-26), 500 nM SB-431542 (Selleckchem, cat. S1067), and 10 nM gastrin (Tocris Bioscience, cat. 3006). […]

Broadly, the viability, T/C is the ratio of treated to control. For orientation: IC50 means the concentration needed to halve the response being measured.

“And” between values parts separate entries of the source, which are not always exact repeats. Equal values may be shown once.
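Wherever viability, T/C is given: spheroids exposed to agents for seven days before readout; 100% = DMSO vehicle control wells.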

Take `CC(=O)OC12COC1CC(O)C1(C)C(=O)C(O)C3=C(C)C(OC(=O)C(O)C(NC(=O)OC(C)(C)C)c4ccccc4)CC(O)(C(OC(=O)c4ccccc4)C21)C3(C)C` (stereo not given): the viability, T/C is, setting by setting: (compound 0.0316 µM) 27.8% [middle of 4 runs]; (compound 0.1 µM) 33.9% [middle of 4 runs]; (compound 0.316 µM) 37.7% [middle of 4 runs]; (compound 1 µM) 49.9% [middle of 4 runs]; (compound 3.16 µM) 73.4% [middle of 4 runs]; (compound 10 µM) 64.2% [middle of 4 runs]. Further, the half-maximal inhibitory concentration (IC50) (curve of compound) is below 31.6 nM.
`CC1(O)CCCC1n1c(=O)c(C(F)F)cc2cnc(NC3CCN(S(C)(=O)=O)CC3)nc21` (stereo not given): the viability, T/C runs as follows: (compound 0.0316 µM) 100% [middle of 4 runs]; (compound 0.1 µM) 83.3% [middle of 4 runs]; (compound 0.316 µM) 69.4% [middle of 4 runs]; (compound 1 µM) 65.9% [middle of 4 runs]; (compound 3.16 µM) 58.3% [middle of 4 runs]; (compound 10 µM) 21.9% [middle of 4 runs].
Turning to `CCC(CC)c1cc(NC2CCC(N)C2)n2nccc2n1` (stereo not given), the viability, T/C reads like this: (compound 0.0316 µM) 106% [middle of 4 runs]; (compound 0.1 µM) 94.7% [middle of 4 runs]; (compound 0.316 µM) 99.3% [middle of 4 runs]; (compound 3.16 µM) 1.29% [middle of 4 runs]; (compound 10 µM) 1% [middle of 4 runs]. Under “curve of compound”, the concentration for half-maximal inhibition (IC50) is 1.63 µM [middle of 4 runs].
On to `C[C@@H](NC(=O)c1ncnc(N)c1Cl)c1ncc(C(=O)Nc2cc(C(F)(F)F)c(Cl)cn2)s1`, for which the viability, T/C was 126% [middle of 4 runs] (compound 0.0316 µM), 132% [middle of 4 runs] (compound 0.1 µM), 105% [middle of 4 runs] (compound 3.16 µM) and 32.6% [middle of 4 runs] (compound 10 µM). Also, the 50% inhibitory concentration (IC50) (curve of compound) was 7.59 µM [middle of 4 runs].
`Cc1nc(N2CCC3(CC2)COC(C)C3N)c(CO)nc1Sc1ccnc(N)c1Cl` (stereo not given): the viability, T/C reads like this: (compound 0.0316 µM) 104% [middle of 4 runs]; (compound 0.1 µM) 103% [middle of 4 runs]; (compound 0.316 µM) 111% [middle of 4 runs]; (compound 1 µM) 112% [middle of 4 runs]; (compound 3.16 µM) 112% [middle of 4 runs]; (compound 10 µM) 108% [middle of 4 runs]. Also, the half-maximal inhibitory concentration (IC50) (curve of compound) was above 10000 nM.
Consider `NC1c2ccccc2OC12CCN(c1cnc3c(N4CCCc5ncccc54)n[nH]c3n1)CC2` (stereo not given), for which the viability, T/C is 114% [middle of 4 runs] (compound 0.0316 µM); 106% [middle of 4 runs] (compound 0.1 µM); 115% [middle of 4 runs] (compound 0.316 µM); 112% [middle of 4 runs] (compound 1 µM); 114% (2×) and 102% and 108% (compound 3.16 µM); 105% (2×) and 86.2% and 87.2% (compound 10 µM). In addition, the half-maximal inhibitory concentration (IC50) (curve of compound) is above 10000 nM.
`C=CC(=O)Nc1cc(Nc2nccc(-c3cn(C)c4ccccc34)n2)c(OC)cc1N(C)CCN(C)C` + C#Cc1c(F)ccc2cc(O)cc(-c3ncc4c(N5CC6CCC(C5)N6)nc(OCC56CCCN5CC(F)C6)nc4c3F)c12: the IC50 (curve of first compound, second compound 0.0316 µM) was above 1000 nM; the half-inhibitory concentration (IC50) (curve of first compound, second compound 0.1 µM) was above 1000 nM; the IC50 (curve of first compound, second compound 0.316 µM) is above 1000 nM; the IC50 (curve of first compound, second compound 1 µM) is above 1000 nM; the IC50 (curve of first compound, second compound 3.16 µM) is above 1000 nM; the half-maximal inhibitory concentration (IC50) (curve of first compound, second compound 10 µM) is above 1000 nM. In addition, the viability, T/C reads like this: (second compound 0.0316 µM, first compound 0.00316 µM) 117%; (second compound 0.0316 µM, first compound 0.01 µM) 110%; (second compound 0.0316 µM, first compound 0.0316 µM) 109%; (second compound 0.0316 µM, first compound 0.1 µM) 103%; (second compound 0.0316 µM, first compound 0.316 µM) 110%; (second compound 0.0316 µM, first compound 1 µM) 95.6%. Also, the viability, T/C by setting is: (second compound 0.1 µM, first compound 0.00316 µM) 103%; (second compound 0.1 µM, first compound 0.01 µM) 107%; (second compound 0.1 µM, first compound 0.0316 µM) 106%; (second compound 0.1 µM, first compound 0.1 µM) 100%; (second compound 0.1 µM, first compound 0.316 µM) 113%; (second compound 0.1 µM, first compound 1 µM) 103%. Moreover, the viability, T/C (second compound 0.316 µM, first compound 0.00316 µM) was 111%; the viability, T/C (second compound 0.316 µM, first compound 0.01 µM) was 106%; the viability, T/C (second compound 0.316 µM, first compound 0.0316 µM) was 106%; the viability, T/C (second compound 0.316 µM, first compound 0.1 µM) was 107%; the viability, T/C (second compound 0.316 µM, first compound 0.316 µM) was 111%; the viability, T/C (second compound 0.316 µM, first compound 1 µM) was 104%. Moreover, the viability, T/C is 114% (second compound 1 µM, first compound 0.00316 µM); 113% (second compound 1 µM, first compound 0.01 µM); 119% (second compound 1 µM, first compound 0.0316 µM); 122% (second compound 1 µM, first compound 0.1 µM); 105% (second compound 1 µM, first compound 0.316 µM); 115% (second compound 1 µM, first compound 1 µM). The viability, T/C was 115% (second compound 3.16 µM, first compound 0.00316 µM); 116% (second compound 3.16 µM, first compound 0.01 µM); 114% (second compound 3.16 µM, first compound 0.0316 µM); 117% (second compound 3.16 µM, first compound 0.1 µM); 112% (second compound 3.16 µM, first compound 0.316 µM); 114% (second compound 3.16 µM, first compound 1 µM). Moreover, the viability, T/C was 123% (second compound 10 µM, first compound 0.00316 µM); 118% (second compound 10 µM, first compound 0.01 µM); 110% (second compound 10 µM, first compound 0.0316 µM); 128% (second compound 10 µM, first compound 0.1 µM); 120% (second compound 10 µM, first compound 0.316 µM); 93.7% (second compound 10 µM, first compound 1 µM).

Values taken from PubChem BioAssay AID2060895 (Molecular Pharmacology Branch, DTP, NCI, 2025).
